Each structure is given as a SMILES string. ≈ marks a conversion by molar mass, not a printed value. Where two headings read alike, the source gives them in different places.

Holding throughout (assay): Antibacterial activity (MIC), agar dilution
Assay type in all cases: cell-based
On the technique in general: In agar dilution the substance is mixed into plates at graded concentrations.

One test deals with St. aureus F-137*. The conditions noted are these: Staphylococcus aureus, 20 h, St. aureus F-137, penicillinase-producing; 10^6 cells per ml; read-out: MIC. From the text:
(§1) The amount of bacteria inoculated was 10^4 cells per plate (10^6 cells per ml).
(§2) * Penicillinase-producing bacteria

For a further test, the system named is Kl. pneumoniae Y-4*. The note with it: Klebsiella pneumoniae, 20 h, Kl. pneumoniae Y-4, penicillinase-producing; 10^6 cells per ml; read-out: MIC.
From the text: as §1, §2

A further test concerns E. coli TK-3*. The conditions noted are these: Escherichia coli, 20 h.
From the text: as §1, §2

The subject of another test is Ps. aeruginosa GN3379*. The conditions noted are these: Pseudomonas aeruginosa, Ps. aeruginosa GN3379, penicillinase-producing, 10^6 cells per ml.
From the text: as §1, §2

The subject of another test is Pro. vulgaris GN76**. The note with it: Proteus vulgaris, 20 h; Pro. vulgaris GN76, cephalospolinase-producing; 10^6 cells per ml; read-out: MIC.
From the text: as §1
(§3) ** Cephalospolinase-producing bacteria

In another test the test system is E. coli GN5482**. The note with it: Escherichia coli, 20 h; E. coli GN5482, cephalospolinase-producing; 10^6 cells per ml; read-out: MIC.
From the text: as §1, §3

Another test deals with Ps. aeruginosa GN918**. The note with it: Pseudomonas aeruginosa, Ps. aeruginosa GN918, cephalospolinase-producing, 10^6 cells per ml.
From the text: as §1, §3

A further test concerns Ps. aeruginosa IFO3445. The conditions noted are these: Pseudomonas aeruginosa.
From the text: as §1

The next test has as its system St. aureus FDA209P. The note with it: Staphylococcus aureus, FDA209P, 20 h, St. aureus FDA209P; 10^6 cells per ml; 37° C., 20 hours; read-out: MIC.
From the text: as §1

Another test relates to Pro. vulgaris GN3027. The note with it: Proteus vulgaris, GN3027, 20 h, Pro. vulgaris GN3027; 10^6 cells per ml; 37° C., 20 hours; read-out: MIC.
From the text: as §1

In the next test the test system is E. coli TK-111. The conditions noted are these: Escherichia coli, TK111, 20 h, E. coli TK-111; 10^6 cells per ml; 37° C., 20 hours; read-out: MIC.
From the text: as §1

A further test deals with Pro. mirabilis T-111. The conditions noted are these: Proteus mirabilis, 37° C.
From the text: as §1

For another test, the system named is Ps. aeruginosa S-68. The conditions noted are these: Pseudomonas aeruginosa.
From the text: as §1

Another test deals with Pro. morganii T-216. The note with it: Morganella morganii, 37° C.
From the text: as §1

Another test has as its system Kl. pneumoniae Y-41. The note with it: Klebsiella pneumoniae, Y41, 10^6 cells per ml, 37° C., 20 hours, read-out: MIC.
From the text: as §1

Another test deals with Aci. antitratus A-6. The note with it: 20 h, Aci. antitratus A-6; 10^6 cells per ml; 37° C., 20 hours; read-out: MIC.
From the text: as §1

In another test the test system is Kl. pneumoniae Y-50. The note with it: Klebsiella pneumoniae, Y50, 20 h, 10^6 cells per ml, 37° C., read-out: MIC.
From the text: as §1

For a further test, the system named is E. coli NIHJ JC-2. The note with it: Escherichia coli, NIHJJC2, 20 h, E. coli NIHJ JC-2; 10^6 cells per ml; 37° C., 20 hours; read-out: MIC.
From the text: as §1

A further test has as its system Ent. cloacae IID977. The conditions noted are these: Enterobacter cloacae, IID977, 20 h.
From the text: as §1

[1] abbreviates: E. coli TK-3, penicillinase-producing, 10^6 cells per ml, read-out: MIC.
Setting [2] is: Ps. aeruginosa IFO3445, 10^6 cells per ml, 37° C., 20 hours, read-out: MIC.
Setting [3] is: T111, 10^6 cells per ml, 20 hours, read-out: MIC.
Where [4] appears, read: T216, 10^6 cells per ml, 20 hours, read-out: MIC.
Setting [5] is: Ent. cloacae IID977, 10^6 cells per ml, 37° C., 20 hours, read-out: MIC.
The mark [6] stands for this setting: S68, Ps. aeruginosa S-68, 10^6 cells per ml, 37° C., 20 hours, read-out: MIC.

On to `O=C(O)c1cn(-c2ccc(O)cc2)c(-c2ccc3ccccc3c2)cc1=O`, for which the MIC in the test on St. aureus F-137* was at most 0.05 µg/mL; in the test on Kl. pneumoniae Y-4* it was 1.56 µg/mL (≈ 4.37 µM); with E. coli TK-3* (setting [1]) it was 0.39 µg/mL (≈ 1.09 µM); with Ps. aeruginosa GN3379* (20 h, read-out: MIC), 3.13 µg/mL (≈ 8.76 µM); in the test with Pro. vulgaris GN76** it was 0.39 µg/mL (≈ 1.09 µM); in the test with E. coli GN5482**, at most 0.05 µg/mL. Further, the MIC with Ps. aeruginosa GN918** (20 h, read-out: MIC) was 6.25 µg/mL (≈ 17.5 µM); with Ps. aeruginosa IFO3445 (setting [2]) it was 6.25 µg/mL (≈ 17.5 µM); in the test on St. aureus FDA209P, at most 0.05 µg/mL; in the test with Pro. vulgaris GN3027 it was 0.1 µg/mL (≈ 0.28 µM); in the test on E. coli TK-111, at most 0.05 µg/mL; with Pro. mirabilis T-111 (setting [3]), 0.78 µg/mL (≈ 2.18 µM). In addition, the MIC with Ps. aeruginosa S-68 (S68, 20 h) is 1.56 µg/mL (≈ 4.37 µM); in the test with Pro. morganii T-216 (setting [4]), 0.39 µg/mL (≈ 1.09 µM); with Kl. pneumoniae Y-41 it was 1.56 µg/mL (≈ 4.37 µM); in the test on Aci. antitratus A-6, 0.2 µg/mL (≈ 0.56 µM); with Kl. pneumoniae Y-50, 0.39 µg/mL (≈ 1.09 µM); in the test on E. coli NIHJ JC-2 it was 0.2 µg/mL (≈ 0.56 µM). Moreover, the MIC in the test with Ent. cloacae IID977 (setting [5]) was 0.39 µg/mL (≈ 1.09 µM).

Regarding `O=C(O)c1cn(-c2ccc(O)cc2)c(-c2ccc(-c3ccccc3)s2)cc1=O`, the MIC in the test on St. aureus F-137* is at most 0.05 µg/mL; in the test with Kl. pneumoniae Y-4* it was 1.56 µg/mL (≈ 4.01 µM); in the test with E. coli TK-3* (setting [1]) it was 0.78 µg/mL (≈ 2 µM); with Ps. aeruginosa GN3379* (GN3379, 20 h), 3.13 µg/mL (≈ 8.04 µM); in the test on Pro. vulgaris GN76**, 0.39 µg/mL (≈ 1 µM); in the test with E. coli GN5482**, at most 0.05 µg/mL. For the same compound, the MIC is 1.56 µg/mL (≈ 4.01 µM) against Ps. aeruginosa GN918** (GN918, 20 h); 3.13 µg/mL (≈ 8.04 µM) against Ps. aeruginosa IFO3445 (IFO3445, 20 h); at most 0.05 µg/mL with St. aureus FDA209P; at most 0.05 µg/mL with Pro. vulgaris GN3027; at most 0.05 µg/mL with E. coli TK-111; 0.78 µg/mL (≈ 2 µM) in the test on Pro. mirabilis T-111 (setting [3]). The MIC against Ps. aeruginosa S-68 (S68, 20 h) turned out to be 3.13 µg/mL (≈ 8.04 µM); in the test on Pro. morganii T-216 (setting [4]), 0.78 µg/mL (≈ 2 µM); in the test on Kl. pneumoniae Y-41, 3.13 µg/mL (≈ 8.04 µM); in the test on Aci. antitratus A-6, 0.2 µg/mL (≈ 0.514 µM); with Kl. pneumoniae Y-50, 0.78 µg/mL (≈ 2 µM); in the test with E. coli NIHJ JC-2 it was 0.39 µg/mL (≈ 1 µM). The same compound showed an MIC with Ent. cloacae IID977 of 1.56 µg/mL (≈ 4.01 µM).

For `CN(C)c1ccc(-c2cc(=O)c(C(=O)O)cn2-c2cccc3c(O)cccc23)cc1`, the MIC in the test on St. aureus F-137* is at most 0.05 µg/mL; in the test on Kl. pneumoniae Y-4*, 6.25 µg/mL (≈ 15.6 µM); in the test on E. coli TK-3* (setting [1]), 1.56 µg/mL (≈ 3.9 µM); in the test on Ps. aeruginosa GN3379* (20 h, read-out: MIC), above 100 µg/mL; in the test on Pro. vulgaris GN76** it was 1.56 µg/mL (≈ 3.9 µM); in the test with E. coli GN5482**, at most 0.05 µg/mL. Moreover, the MIC against Ps. aeruginosa GN918** (GN918, 20 h) is 6.25 µg/mL (≈ 15.6 µM); in the test on Ps. aeruginosa IFO3445 (setting [2]), 12.5 µg/mL (≈ 31.2 µM); with St. aureus FDA209P it was 0.1 µg/mL (≈ 0.25 µM); with Pro. vulgaris GN3027 it was 1.56 µg/mL (≈ 3.9 µM); in the test with E. coli TK-111, at most 0.05 µg/mL; in the test on Pro. mirabilis T-111 (setting [3]), 3.13 µg/mL (≈ 7.82 µM). Further, the MIC stood at 12.5 µg/mL (≈ 31.2 µM) with Ps. aeruginosa S-68 (setting [6]); 3.13 µg/mL (≈ 7.82 µM) with Pro. morganii T-216 (setting [4]); 6.25 µg/mL (≈ 15.6 µM) with Kl. pneumoniae Y-41; 0.39 µg/mL (≈ 0.974 µM) in the test with Aci. antitratus A-6; 0.78 µg/mL (≈ 1.95 µM) in the test on Kl. pneumoniae Y-50; 0.39 µg/mL (≈ 0.974 µM) in the test with E. coli NIHJ JC-2. The MIC in the test with Ent. cloacae IID977 (setting [5]) worked out at 1.56 µg/mL (≈ 3.9 µM).

In the case of `O=C(O)c1cn(-c2ccc(F)cc2)c(/C=C/c2ccccc2)cc1=O`, the MIC was 3.13 µg/mL (≈ 9.33 µM) in the test on St. aureus F-137*; 25 µg/mL (≈ 74.6 µM) with Kl. pneumoniae Y-4*; 12.5 µg/mL (≈ 37.3 µM) in the test with E. coli TK-3*; 25 µg/mL (≈ 74.6 µM) in the test on Ps. aeruginosa GN3379* (20 h, read-out: MIC); 3.13 µg/mL (≈ 9.33 µM) with Pro. vulgaris GN76**; 0.39 µg/mL (≈ 1.16 µM) in the test on E. coli GN5482**. The minimum inhibitory concentration (MIC) stood at 50 µg/mL (≈ 149 µM) in the test on Ps. aeruginosa GN918** (20 h, read-out: MIC); 50 µg/mL (≈ 149 µM) in the test on Ps. aeruginosa IFO3445 (setting [2]); 3.13 µg/mL (≈ 9.33 µM) with St. aureus FDA209P; 0.78 µg/mL (≈ 2.33 µM) in the test on Pro. vulgaris GN3027; 1.56 µg/mL (≈ 4.65 µM) in the test on E. coli TK-111; 12.5 µg/mL (≈ 37.3 µM) in the test on Pro. mirabilis T-111 (T111, 20 h, 10^6 cells per ml). Also, the MIC is 25 µg/mL (≈ 74.6 µM) with Ps. aeruginosa S-68 (setting [6]); 12.5 µg/mL (≈ 37.3 µM) in the test with Pro. morganii T-216 (T216, 20 h, 10^6 cells per ml); 12.5 µg/mL (≈ 37.3 µM) in the test with Kl. pneumoniae Y-41; 1.56 µg/mL (≈ 4.65 µM) in the test with Aci. antitratus A-6; 6.25 µg/mL (≈ 18.6 µM) with Kl. pneumoniae Y-50; 3.13 µg/mL (≈ 9.33 µM) with E. coli NIHJ JC-2. In the test with Ent. cloacae IID977, inhibition of growth (MIC) required 12.5 µg/mL (≈ 37.3 µM).

For orientation: MIC means the lowest concentration that inhibits growth of the organism.
